Measurements taken from ChEMBL document CHEMBL1201862, “PubChem BioAssay data set” (2004).
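All cell lines were grown in 96-well plates and treated with compound for 48 hours. GI50 is the concentration that inhibits growth by half.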 Active and inactive are the calls of the source. No stated cut-off is given here; in the data, active = GI50 up to about 1.1 µM and inactive = higher.

Assays:
Assay in all cases: NCI-60 cell line screen, 48 h
786-0 = test system: 786-0
A498 = test system: A498
A549 = test system: A549
ACHN = test system: ACHN
CAKI-1 = test system: CAKI-1
CCRF-CEM = test system: CCRF-CEM
DLD-1 = test system: DLD-1
DMS-273 = test system: DMS-273
EKVX = test system: EKVX
HCT-116 = test system: HCT-116
HL-60 = test system: HL-60
HOP-62 = test system: HOP-62
HOP-92 = test system: HOP-92
HT-29 = test system: HT-29
IGROV-1 = test system: IGROV-1
K562 = test system: K562
KM12 = test system: KM12
LXFL 529 = test system: LXFL 529
M14 = test system: M14
M19-MEL = test system: M19-MEL
MOLT-4 = test system: MOLT-4
Malme-3M = test system: Malme-3M
NCI-H226 = test system: NCI-H226
NCI-H23 = test system: NCI-H23
NCI-H460 = test system: NCI-H460
NCI-H522 = test system: NCI-H522
OVCAR-3 = test system: OVCAR-3
OVCAR-4 = test system: OVCAR-4
OVCAR-5 = test system: OVCAR-5
OVCAR-8 = test system: OVCAR-8
RXF 393 = test system: RXF 393
SF-268 = test system: SF-268
SF-295 = test system: SF-295
SF-539 = test system: SF-539
SK-MEL-28 = test system: SK-MEL-28
SK-MEL-2 = test system: SK-MEL-2
SK-MEL-5 = test system: SK-MEL-5
SK-OV-3 = test system: SK-OV-3
SN12C = test system: SN12C
SNB-19 = test system: SNB-19
SNB-75 = test system: SNB-75
SNB-78 = test system: SNB-78
SW-620 = test system: SW-620
TK-10 = test system: TK-10
U-251 = test system: U-251
UACC-257 = test system: UACC-257
UACC-62 = test system: UACC-62
UO-31 = test system: UO-31
XF498 = test system: XF498
COLO 205 = test system: COLO 205
DMS-114 = test system: DMS-114
HCC 2998 = test system: HCC 2998
HCT-15 = test system: HCT-15
KM-20L2 = test system: KM-20L2
LOX IMVI = test system: LOX IMVI
RPMI-8226 = test system: RPMI-8226

In the case of `O=C1CCCC1NC(=O)C(F)(F)F` (stereo not given), the GI50 (786-0) is reported as > 100 µM (inactive), the GI50 (A498) is reported as > 100 µM (inactive) and the GI50 (A549) is reported as > 100 µM (inactive). The GI50 (ACHN) was > 100 µM (inactive), the GI50 (CAKI-1) was > 100 µM (inactive) and the GI50 (CCRF-CEM) was > 100 µM (inactive). For the same compound, the GI50 (DLD-1) was > 100 µM (inactive), the GI50 (DMS-273) was > 100 µM (inactive) and the GI50 (EKVX) was > 100 µM (inactive). The GI50 (HCT-116) was > 100 µM (inactive), the GI50 (HL-60) was > 100 µM (inactive) and the GI50 (HOP-62) was > 100 µM (inactive). For the same compound, the GI50 (HOP-92) was > 100 µM (inactive), the GI50 (HT-29) was > 100 µM (inactive) and the GI50 (IGROV-1) was > 100 µM (inactive). The GI50 (K562) was > 100 µM (inactive), the GI50 (KM12) was > 100 µM (inactive) and the GI50 (LXFL 529) was > 100 µM (inactive). The GI50 (M14) was > 100 µM (inactive), the GI50 (M19-MEL) was > 100 µM (inactive) and the GI50 (MOLT-4) was > 100 µM (inactive). For the same compound, the GI50 (Malme-3M) was 0.182 µM (active), the GI50 (NCI-H226) was > 100 µM (inactive) and the GI50 (NCI-H23) was > 100 µM (inactive). For the same compound, the GI50 (NCI-H460) was > 100 µM (inactive), the GI50 (NCI-H522) was > 100 µM (inactive) and the GI50 (OVCAR-3) was > 100 µM (inactive). For the same compound, the GI50 (OVCAR-4) was > 100 µM (inactive), the GI50 (OVCAR-5) was > 100 µM (inactive) and the GI50 (OVCAR-8) was > 100 µM (inactive). The GI50 (RXF 393) was > 100 µM (inactive), the GI50 (SF-268) was > 100 µM (inactive) and the GI50 (SF-295) was > 100 µM (inactive). For the same compound, the GI50 (SF-539) was > 100 µM (inactive), the GI50 (SK-MEL-28) was > 100 µM (inactive) and the GI50 (SK-MEL-2) was > 100 µM (inactive). For the same compound, the GI50 (SK-MEL-5) was > 100 µM (inactive), the GI50 (SK-OV-3) was > 100 µM (inactive) and the GI50 (SN12C) was > 100 µM (inactive). The GI50 (SNB-19) was > 100 µM (inactive), the GI50 (SNB-75) was > 100 µM (inactive) and the GI50 (SNB-78) was > 100 µM (inactive). The GI50 (SW-620) was > 100 µM (inactive), the GI50 (TK-10) was > 100 µM (inactive) and the GI50 (U-251) was > 100 µM (inactive). The GI50 (UACC-257) was > 100 µM (inactive), the GI50 (UACC-62) was > 100 µM (inactive) and the GI50 (UO-31) was > 100 µM (inactive). The GI50 (XF498) was > 100 µM (inactive).

For `COC(=O)/C(=N\NC(=O)c1ccccc1O)C(C#N)c1ccccc1` (stereo not given), the GI50 (786-0) was 17.4 µM (inactive), the GI50 (A498) was > 25.9 µM (inactive) and the GI50 (A549) was 16.6 µM (inactive). For the same compound, the GI50 (ACHN) was 19.7 µM (inactive), the GI50 (CAKI-1) was 27.7 µM (inactive) and the GI50 (CCRF-CEM) was 19.4 µM (inactive). The GI50 (COLO 205) was > 50 µM (inactive), the GI50 (DLD-1) was 24 µM (inactive) and the GI50 (DMS-114) was 15.9 µM (inactive). For the same compound, the GI50 (DMS-273) was 19 µM (inactive), the GI50 (EKVX) was 18.4 µM (inactive) and the GI50 (HCC 2998) was > 50 µM (inactive). For the same compound, the GI50 (HCT-116) was 17.3 µM (inactive), the GI50 (HCT-15) was 17.4 µM and the GI50 (HL-60) was 16.3 µM (inactive). For the same compound, the GI50 (HOP-62) was 20.7 µM (inactive), the GI50 (HOP-92) was 19.9 µM (inactive) and the GI50 (HT-29) was > 50 µM (inactive). The GI50 (IGROV-1) was 19.5 µM (inactive), the GI50 (K562) was 16.4 µM (inactive) and the GI50 (KM-20L2) was > 50 µM (inactive). The GI50 (KM12) was 24.1 µM (inactive), the GI50 (LOX IMVI) was 19.4 µM (inactive) and the GI50 (LXFL 529) was 21.5 µM (inactive). For the same compound, the GI50 (M14) was 31.4 µM (inactive), the GI50 (M19-MEL) was 30 µM (inactive) and the GI50 (MOLT-4) was 22.3 µM (inactive). For the same compound, the GI50 (Malme-3M) was 21.4 µM (inactive), the GI50 (NCI-H226) was 12.7 µM (inactive) and the GI50 (NCI-H23) was 20.1 µM (inactive). The GI50 (NCI-H460) was 18.9 µM (inactive), the GI50 (NCI-H522) was 17.2 µM (inactive) and the GI50 (OVCAR-3) was 16.6 µM (inactive). For the same compound, the GI50 (OVCAR-4) was > 43.2 µM (inactive), the GI50 (OVCAR-5) was 20.9 µM (inactive) and the GI50 (OVCAR-8) was 23.7 µM (inactive). The GI50 (RPMI-8226) was 20.2 µM (inactive), the GI50 (RXF 393) was 16.5 µM (inactive) and the GI50 (SF-268) was 23.5 µM (inactive). For the same compound, the GI50 (SF-295) was 22.1 µM (inactive), the GI50 (SF-539) was 14.8 µM (inactive) and the GI50 (SK-MEL-28) was > 50 µM (inactive). For the same compound, the GI50 (SK-MEL-2) was > 50 µM (inactive), the GI50 (SK-MEL-5) was 22 µM (inactive) and the GI50 (SK-OV-3) was > 45.2 µM (inactive). The GI50 (SN12C) was 37.4 µM (inactive), the GI50 (SNB-19) was 23.2 µM (inactive) and the GI50 (SNB-75) was 22.5 µM (inactive). For the same compound, the GI50 (SNB-78) was 23.4 µM (inactive), the GI50 (SW-620) was 23.5 µM (inactive) and the GI50 (TK-10) was > 46.7 µM (inactive). For the same compound, the GI50 (U-251) was 32.1 µM (inactive), the GI50 (UACC-257) was 25.9 µM (inactive) and the GI50 (UACC-62) was 12.1 µM (inactive). For the same compound, the GI50 (UO-31) was 12.9 µM (inactive) and the GI50 (XF498) was 17.3 µM (inactive).
